Assay results reported in patent publication US20120015396A1, “COMPOSITIONS AND METHODS FOR MODULATING THE ACID-SENSING ION CHANNEL (ASIC)” (Department of Veteran's Affair, United States Technology …, priority 2002, published 2012).

Columns and labels:
ASIC channels = target: T1, ASIC channels (Homo sapiens, UniProt P78348); settings: cited from earlier work
T1 sequence (P78348 1-528): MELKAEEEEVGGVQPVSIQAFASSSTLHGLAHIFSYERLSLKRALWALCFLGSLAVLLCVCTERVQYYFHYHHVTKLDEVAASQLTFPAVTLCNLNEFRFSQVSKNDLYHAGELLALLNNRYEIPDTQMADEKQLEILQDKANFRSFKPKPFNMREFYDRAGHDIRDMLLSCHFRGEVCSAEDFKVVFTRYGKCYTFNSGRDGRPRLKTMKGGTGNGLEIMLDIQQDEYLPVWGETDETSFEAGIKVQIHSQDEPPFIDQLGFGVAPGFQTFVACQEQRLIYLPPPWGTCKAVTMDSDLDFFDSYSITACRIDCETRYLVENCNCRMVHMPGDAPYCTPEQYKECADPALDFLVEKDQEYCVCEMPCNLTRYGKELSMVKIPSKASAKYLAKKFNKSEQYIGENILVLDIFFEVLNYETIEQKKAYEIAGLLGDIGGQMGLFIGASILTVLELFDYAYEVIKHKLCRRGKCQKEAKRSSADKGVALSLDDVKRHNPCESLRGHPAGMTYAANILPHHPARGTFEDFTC

cortical neurons = settings: primary cultures of cortical neurons; cited from earlier work
[1] = test system: Schaffer collateral-CA1 synapses in hippocampal slices; assay: Baseline field EPSP recording in hippocampal slices; assay type: cell-based; settings: KA 5 mM; slices from +/+ and −/− mice
Description: (§1) Transverse hippocampal slices (350-400 μm) were prepared from wild type (+/+) and ASIC knock out (−/−) littermates at 2-4 months of age. For the LTP studies, the applicant was blinded to genotype. The slices were sectioned in ice-cold artificial cerebrospinal fluid (ACSF) containing (in mM) 119 NaCl, 2.5 KCl, 2.5 CaCl2, 1.0 NaH2PO4, 1.3 MgSO4, 26.2 NaHCO3, 11 glucose, pH 7.4, bubbled with 95% O2/5% CO2, and then were incubated in identical solution at 31° C. for 2-5 hours before recording.
Standard extracellular field potential recording techniques were used. Experiments were performed in a submerged chamber, heated to 31±0.5° C. Field postsynaptic excitatory potentials (EPSPs) were evoked in CA1 stratum radiatum by stimulation of Schaffer collaterals with a bipolar stainless steel electrode that was put at the border of CA3-CA1 subfields and recorded with 3M NaCl-filled glass pipettes (<5 MSΩ) using a biological amplifier (WPI, Iso-DAME, FL., USA). A 100 μs test stimulation was delivered every 30 s by a stimulus isolation unit (Grass, SD9, Mass., USA). […] LTP was measured by normalizing the EPSP slopes after HFS to the mean slope of the baseline EPSP before HFS. Data were digitized (10 kHz), filtered at 1 kHz (eight-pole Bessel Filter), monitored on-line, and stored on hard disk using PULSE 8.41 (HEKA, Lambrecht, Germany). […]

[2] = test system: Schaffer collateral-CA1 synapses in hippocampal slices; assay: LTP induced by HFS in hippocampal slices; assay type: cell-based, mice; settings: 10 μM PMA
Description: as §1
Standard extracellular field potential recording techniques were used. Experiments were performed in a submerged chamber, heated to 31±0.5° C. Field postsynaptic excitatory potentials (EPSPs) were evoked in CA1 stratum radiatum by stimulation of Schaffer collaterals with a bipolar stainless steel electrode that was put at the border of CA3-CA1 subfields and recorded with 3M NaCl-filled glass pipettes (<5 MSΩ) using a biological amplifier (WPI, Iso-DAME, FL., USA). A 100 μs test stimulation was delivered every 30 s by a stimulus isolation unit (Grass, SD9, Mass., USA). Input-output curves were obtained by plotting the stimulus voltage against the amplitude of EPSPs. […] Stimulus intensity was adjusted to evoke half-maximal responses. LTP was induced by a high-frequency stimulation (HFS, 100 Hz, 1 s, at test intensity). Paired-pulse facilitation (PPF) was observed by applying paired pulses with different intervals (20, 50 ms). LTP was measured by normalizing the EPSP slopes after HFS to the mean slope of the baseline EPSP before HFS. Data were digitized (10 kHz), filtered at 1 kHz (eight-pole Bessel Filter), monitored on-line, and stored on hard disk using PULSE 8.41 (HEKA, Lambrecht, Germany). Off-line analysis was performed by PATCHMACHINE 1.0 (Hoshi Laboratory, Philadelphia, Pa., USA) and IGORPRO 4.0 (WaveMetrics, Lake Oswego, Oreg., USA). Unless otherwise noted, two-sample t-test was used to calculate statistical

neuropeptide FF
modulation of the response of ASIC channels to acid (ASIC channels): generating a sustained component of current

N=C(N)NC(=O)c1nc(Cl)c(N)nc1N [amiloride]
effect on H+-evoked currents (cortical neurons): inhibition

Phe-Met-Arg-Phe-NH2 [FMRFamide]
modulation of the response of ASIC channels to acid (ASIC channels): generating a sustained component of current

O=C(O)c1cc(=O)c2ccccc2[nH]1 [KA, kynurenic acid]
effect on baseline EPSPs [1]: abolished EPSPs

CCCCCCCCCCCCCC(=O)O[C@@H]1[C@@H](C)[C@@]2(O)[C@@H](C=C(CO)C[C@]3(O)C(=O)C(C)=C[C@@H]23)[C@@H]2C(C)(C)[C@]12OC(C)=O [PMA, phorbol 12-myristate 13-acetate]
Mean EPSP amplitude at 40 min. following HFS ([2]; +/+ slices): 167±15%
Mean EPSP amplitude at 40 min. following HFS ([2]; −/− slices): 158±11%
effect on LTP ([2]; −/− slices): restores LTP
